Results from article PMC7367873, “Dissecting the sequence determinants for dephosphorylation by the catalytic subunits of phosphatases PP1 and PP2A” (Nature Communications, 2020).

System: GFP-14-3-3β and its binding proteins
Experiment: GFP-14-3-3β co-IP with LC-MS/MS label-free quantification, untreated versus PP1c-treated
Set-up: species or system human

number of proteins significantly dissociating from 14-3-3 (1 µM recombinant PP1c, 1 h at 30 °C, FDR 0.05, of 108 interacting proteins, three replicates): 56 proteins
Difference (log2), PP1 vs untreated (log2 difference, pairwise comparison PP1 vs untreated, label-free quantification, 3 replicates each): 5.428
number of dissociating proteins with at least one PP1c-regulated phosphorylation site (mapped onto phosphoproteomic dataset, of 56 proteins): 35 proteins
14-3-3-protein interactions disrupted (recombinant PP1c): 52%
Substance: PP1c: recombinant catalytic subunit of PP1
